According to US20150018384A1, “TREATMENT FOR HIGH CHOLESTEROL” (FibroGen, Inc., priority 2012, published 2015):

Assays:
cynomolgus monkeys [1] = assay: Lipid panel in monkeys after single IV or PO dose; assay type: in vivo, cynomolgus monkey; details: 30 mg/kg IV or PO (3 each, 6 monkeys), 24 hrs post-dose, ±SD
Protocol: The same monkeys were administered the test compounds in sequence with a washout period between administration of each compound. Monkeys were fasted overnight prior to dosing and food was withheld during the first 4 hours after dosing and food was then allowed. Blood samples were collected at baseline prior to dosing, 4, 12, 24, 48 and 72 hrs after HIF-PHI administration. […] There were a total of 6 monkeys in each dose group, 3 that were dosed PO and 3 dosed IV.

cynomolgus monkeys [2] = assay: Cholesterol levels after repeated oral administration in monkey toxicity studies; assay type: in vivo, cynomolgus monkey; details: 28-Day study, daily oral dosing 1, 10 and 30 mg/kg, day 14 and 29
Protocol: During these studies monkeys were fasted prior to each blood collection. Plasma samples were then evaluated at pre-dose and at different time-points for levels of total cholesterol.

healthy human subjects = details: 0.15 mg/kg or […] weekly for 4 weeks
Protocol: Placebo was administered in the same regimen as a control (n=2 or n=1). Fasting blood samples for cholesterol analysis were collected from subjects in the morning on the day of dosing before compound or placebo was administered.

[3] = system: Cholesterol Biosynthesis Genes in the Mouse Liver; assay: Microarray expression of cholesterol biosynthesis genes in mouse liver; assay type: in vivo; details: 10 mg/kg oral
Protocol: A number of PHI compounds were evaluated for their effect on the expression of cholesterol biosynthesis genes in mouse liver. […] Liver tissue was harvested and stored in RNALater (Life Technologies). Total RNA was isolated with Trizol (Life Technologies) and purified with RNEasy96 (Qiagen) according to the manufacturers' protocols. RNA concentration was measured by NanoDrop (Thermo), and quality was assessed by Bioanalyzer (Agilent).
Biotinylated microarray probe was prepared using the 3′IVT Express kit (Affymetrix) and hybridized to mouse 430A 2.0 arrays as recommended in the manufacturer's protocol. Arrays were stained, washed, and scanned using Affymetrix equipment and software. Three arrays were run for each treatment and time point, each representing the liver sample from one individual animal.
Animals were sacrificed 4 h or 8 h later. Each compound was tested in a separate animal study with separate controls. Liver tissue was harvested and stored in RNALater (Life Technologies). Total RNA was isolated with Trizol (Life Technologies) and purified with RNEasy96 (Qiagen) according to the manufacturers' protocols. RNA concentration was measured by NanoDrop (Thermo), and quality was assessed by Bioanalyzer (Agilent).
For microarray analysis, RNA from animals in each treatment group was pooled in pairs (n=3 pairs for 4 h vehicle, n=2 pairs for all other treatment groups, for a total of 13 arrays per compound study). This approach was used to improve the signal-to-noise ratio on microarrays. Biotinylated probe was prepared using the One-Cycle cDNA synthesis kit (Affymetrix) and hybridized to mouse 430A 2.0 arrays as recommended in the manufacturer's protocol. Arrays were stained, washed, and scanned using Affymetrix equipment and software.
Array quality was assessed with GeneChip Operating System and/or Command Console software (Affymetrix). CEL files were uploaded to GeneSpring 7.3.1 (Agilent) using GC-RMA baseline correction. Principal Components Analysis was used to identify and reject outlier arrays. Data are reported as fold-change compared to timepoint-matched vehicle controls from the same study. Values less than 1.0 indicate a reduction of RNA in the treated animal liver tissue.

DIO mice = assay: High cholesterol mouse model, diet induced obesity (DIO) mice
Text: Ten-week-old male apoE knockout mice (Jackson Laboratories, Bar Harbor, Me.) were fed a normal chow diet (0.02% cholesterol, 13.5% fat by weight; LabDiet). Ten-week-old male diet induced obese mice (DIO Mice, Jackson Laboratories, Bar Harbor, Me.) were fed a high fat diet (0.095% cholesterol, 60% fat by weight; ResearchDiets) starting at six-weeks-old. After 2 weeks of acclimatization, whole blood was collected for baseline measurement before administration of test reagents. All test reagents were administered orally by gavage needle three times a week for 2 weeks for the apoE mice, and three times a week for 4 weeks for the DIO mice. The animals were sacrificed at end of study. Whole blood was collected weekly in Heparin-tube by submandibular bleeding and isolated plasma was stored at −80° C. for measurement of total cholesterol.
DIO mice as described in Example 10 were used to test the effect of various compounds on cholesterol levels. Compound (60 mg/kg) or vehicle was administered to the mice (n=10/group) three times a week for four weeks. A statin compound (rosuvastatin) was also tested. Blood samples were collected at weekly and total cholesterol blood levels were tested.

ApoE deficient mice = assay: High cholesterol mouse model, ApoE deficient mice, 2 weeks; assay type: in vivo; details: Compound 60 mg/kg three times a week for two weeks, n=10/group, FIG. 22
Text: Ten-week-old male apoE knockout mice (Jackson Laboratories, Bar Harbor, Me.) were fed a normal chow diet (0.02% cholesterol, 13.5% fat by weight; LabDiet). […] After 2 weeks of acclimatization, whole blood was collected for baseline measurement before administration of test reagents. […] The animals were sacrificed at end of study.
ApoE deficient mice as described in Example 10 were used to test the effect of various compounds on cholesterol levels. […] A statin compound (rosuvastatin) was also tested. Blood samples were collected at the end of the study and total cholesterol blood levels were tested. A group of 10 mice was sacrificed at the beginning of the study for a baseline total cholesterol measurement. […] Typically statins show mixed results in this model and are not very effective to reduce cholesterol in mice (Bea et al. 2003 Atherosclerosis 167:187-194).

N#Cc1nc(C(=O)NCC(=O)O)c(O)c2c(Oc3ccc(Cl)cc3)cccc12 [Compound C] was tested, and the “Cholesterol change from baseline” value (cynomolgus monkeys [1]) was -11.8 ± 4.9 mg/dL, the “HDL change from baseline” value (cynomolgus monkeys [1]) was 0.5 ± 6.9 mg/dL and the “TGs change from baseline” value (cynomolgus monkeys [1]) was -10 ± 21 mg/dL. For the same compound, the total cholesterol levels (cynomolgus monkeys [2]) was “dose-dependent decrease in cholesterol levels”, the total cholesterol levels (cynomolgus monkeys [2]; listed as compound C) was “dose dependent decrease in total cholesterol” and the “total cholesterol levels over the course of treatment” value (healthy human subjects) was “decreased”.
For N#Cc1nc(C(=O)NCC(=O)O)c(O)c2ccn(Cc3ccccc3F)c12 [Compound G, {[7-Cyano-1-(2-fluoro-benzyl)-4-hydroxy-1H-pyrrolo[2,3-c]pyridine-5-carbonyl]-amino}-acetic acid], the “3-hydroxy-3-methylglutaryl-Coenzyme A reductase (Hmgcr) RNA expression” value ([3]; 4 h) was 0.68 fold-change, the “3-hydroxy-3-methylglutaryl-Coenzyme A synthase 1 (Hmgcs1) RNA expression” value ([3]; 4 h) was 1.29 fold-change and the “7-dehydrocholesterol reductase (Dhcr7) RNA expression” value ([3]; 4 h) was 0.91 fold-change. For the same compound, the “NAD(P) dependent steroid dehydrogenase-like (Nsdhl) RNA expression” value ([3]; 4 h) was 1.46 fold-change, the “acetyl-Coenzyme A acetyltransferase 2 (Acat2) RNA expression” value ([3]; 4 h) was 1.18 fold-change and the “cytochrome P450, family 51 (Cyp51) RNA expression” value ([3]; 4 h) was 1.00 fold-change. The “farnesyl diphosphate farnesyl transferase 1 (Fdft1) RNA expression” value ([3]; 4 h) was 1.15 fold-change, the “farnesyl diphosphate synthetase (Fdps) RNA expression” value ([3]; 4 h) was 1.16 fold-change and the “isopentenyl-diphosphate delta isomerase (Idi1) RNA expression” value ([3]; 4 h) was 1.13 fold-change. The “lanosterol synthase (Lss) RNA expression” value ([3]; 4 h) was 1.22 fold-change, the “mevalonate (diphospho) decarboxylase (Mvd) RNA expression” value ([3]; 4 h) was 1.03 fold-change and the “mevalonate kinase (Mvk) RNA expression” value ([3]; 4 h) was 0.98 fold-change. The “phosphomevalonate kinase (Pmvk) RNA expression” value ([3]; 4 h) was 0.95 fold-change, the “squalene epoxidase (Sqle) RNA expression” value ([3]; 4 h) was 1.50 fold-change and the “sterol-C4-methyl oxidase-like (Sc4mol) RNA expression” value ([3]; 4 h) was 0.87 fold-change. For the same compound, the “sterol-C5-desaturase (fungal ERG3, delta-5-desaturase) homolog (S. cerevisae) (Sc5d) RNA expression” value ([3]; 4 h) was 0.70 fold-change, the “3-hydroxy-3-methylglutaryl-Coenzyme A reductase (Hmgcr) RNA expression” value ([3]; 8 h) was 0.66 fold-change and the “3-hydroxy-3-methylglutaryl-Coenzyme A synthase 1 (Hmgcs1) RNA expression” value ([3]; 8 h) was 0.82 fold-change. For the same compound, the “7-dehydrocholesterol reductase (Dhcr7) RNA expression” value ([3]; 8 h) was 1.07 fold-change, the “NAD(P) dependent steroid dehydrogenase-like (Nsdhl) RNA expression” value ([3]; 8 h) was 1.00 fold-change and the “acetyl-Coenzyme A acetyltransferase 2 (Acat2) RNA expression” value ([3]; 8 h) was 0.67 fold-change. For the same compound, the “cytochrome P450, family 51 (Cyp51) RNA expression” value ([3]; 8 h) was 0.62 fold-change, the “farnesyl diphosphate farnesyl transferase 1 (Fdft1) RNA expression” value ([3]; 8 h) was 0.98 fold-change and the “farnesyl diphosphate synthetase (Fdps) RNA expression” value ([3]; 8 h) was 0.73 fold-change. For the same compound, the “isopentenyl-diphosphate delta isomerase (Idi1) RNA expression” value ([3]; 8 h) was 0.94 fold-change, the “lanosterol synthase (Lss) RNA expression” value ([3]; 8 h) was 0.87 fold-change and the “mevalonate (diphospho) decarboxylase (Mvd) RNA expression” value ([3]; 8 h) was 1.03 fold-change. For the same compound, the “mevalonate kinase (Mvk) RNA expression” value ([3]; 8 h) was 0.89 fold-change, the “phosphomevalonate kinase (Pmvk) RNA expression” value ([3]; 8 h) was 0.70 fold-change and the “squalene epoxidase (Sqle) RNA expression” value ([3]; 8 h) was 1.22 fold-change. The “sterol-C4-methyl oxidase-like (Sc4mol) RNA expression” value ([3]; 8 h) was 0.58 fold-change, the “sterol-C5-desaturase (fungal ERG3, delta-5-desaturase) homolog (S. cerevisae) (Sc5d) RNA expression” value ([3]; 8 h) was 0.48 fold-change and the “Cholesterol change from baseline” value (cynomolgus monkeys [1]) was -6.5 ± 10.4 mg/dL. The “HDL change from baseline” value (cynomolgus monkeys [1]) was 0.17 ± 5.4 mg/dL, the “LDL change from baseline” value (cynomolgus monkeys [1]) was -8.7 ± 5.9 mg/dL and the “LDL/HDL ratio change from baseline” value (cynomolgus monkeys [1]) was −0.13 ± 0.08. The “TGs change from baseline” value (cynomolgus monkeys [1]) was -23 ± 8 mg/dL and the “body weights at the end of the study” value (DIO mice; 60 mg/kg three times a week for four weeks) was “lower body weights”.
In the case of CC(C)c1nc(N(C)S(C)(=O)=O)nc(-c2ccc(F)cc2)c1/C=C/[C@@H](O)C[C@@H](O)CC(=O)O [rosuvastatin, reference compound], the “percent change from baseline in total cholesterol at two weeks compared to vehicle treated” value (DIO mice; Compound 60 mg/kg three times a week, n=10/group, FIG. 23) is reported as “lower total cholesterol levels” and the “total cholesterol levels at the end of the study compared to baseline” value (ApoE deficient mice) is reported as “did not show a reduction in cholesterol”.
